Results published in patent US8461170B2, “Chemical compounds” (Astrazeneca AB, priority 2010, dated 2013).

What follows are compounds tested against T1, human ALK (Homo sapiens, UniProt Q9UM73) (assay: ALK kinase mobility shift assay (Caliper LC3000)). Details: cumulative geometric means including test re-runs, some obtained since the priority filings; ATP 30 μM (Km) or 5 mM, not specified which; read-out: ALK Enzyme IC50 (μM)**.
T1 construct: GST (N); purchased Invitrogen, Carlsbad, Calif; (or prepared by AstraZeneca); host or cells: insect cells
Assay type: biochemical
Method: ALK kinase activity was determined by measuring the kinase's ability to phosphorylate a tyrosine residue within a peptide substrate using a mobility shift assay on a Caliper LC3000 reader (Caliper Life Sciences, Hopkinton, Mass.), which measures fluorescence of the phosphorylated and unphosphorylated substrate and calculates a ratiometric value to determine percent turnover.
To measure ALK kinase activity, the ALK enzyme used was N-terminal GST-tagged, recombinant, human ALK, amino acids 1058-1620 (Genbank Accession number NP_004295) expressed in insect cells and activated in-vitro via autophosphorylation. This was either purchased from a commercially available source (Invitrogen, Carlsbad, Calif.) or prepared by AstraZeneca. The kinase was incubated with a FAM labeled SRCtide substrate (5FAM-GEEPLYWSFPAKKK-NH2, AnaSpec, Fremont, Calif.), 30 μM adenosine triphosphate (ATP, at Km concentration) or 5 mM ATP, 50 mM HEPES buffer (pH 7.3), 1 mM DTT, 0.01% Tween 20, 50 μg/ml BSA and 10 mM MgCl2 for 90 minutes at room temperature. After this time, the kinase reaction was stopped by adding quenching buffer containing final concentrations of 36 mM ethylenediaminetetraacetic acid (EDTA), 65 mM HEPES buffer (pH 7.3), 0.2% Coatin Reagent 3 (Caliper Life Sciences, Hopkinton, Mass.), and 0.003% Tween 20. The reaction was performed in 384 well microtitre plates and the reaction products were detected using the Caliper LC3000 Reader in the presence of separation buffer consisting of 100 mM HEPES (pH 7.3), 15.8 mM EDTA, 0.1% Coatin Reagent 3 (Caliper, Mass.), 0.015% Brij-35, 5% DMSO, and 5.6 mM MgCl2. The separation conditions set up on the Caliper LC3000 were −1.7 PSI, −400V upstream voltage, −2000V downstream voltage, 0.2 second sample sip, 45 second post sip, and 150 seconds final delay. The percentage of inhibition of ALK enzyme activity by compounds were measured based on Max signals (DMSO control) and Min signals (EDTA control) in the plates. Data was graphed and IC50s calculated by IDBS ActivityBase program.

T1 sequence (Q9UM73 1058-1620): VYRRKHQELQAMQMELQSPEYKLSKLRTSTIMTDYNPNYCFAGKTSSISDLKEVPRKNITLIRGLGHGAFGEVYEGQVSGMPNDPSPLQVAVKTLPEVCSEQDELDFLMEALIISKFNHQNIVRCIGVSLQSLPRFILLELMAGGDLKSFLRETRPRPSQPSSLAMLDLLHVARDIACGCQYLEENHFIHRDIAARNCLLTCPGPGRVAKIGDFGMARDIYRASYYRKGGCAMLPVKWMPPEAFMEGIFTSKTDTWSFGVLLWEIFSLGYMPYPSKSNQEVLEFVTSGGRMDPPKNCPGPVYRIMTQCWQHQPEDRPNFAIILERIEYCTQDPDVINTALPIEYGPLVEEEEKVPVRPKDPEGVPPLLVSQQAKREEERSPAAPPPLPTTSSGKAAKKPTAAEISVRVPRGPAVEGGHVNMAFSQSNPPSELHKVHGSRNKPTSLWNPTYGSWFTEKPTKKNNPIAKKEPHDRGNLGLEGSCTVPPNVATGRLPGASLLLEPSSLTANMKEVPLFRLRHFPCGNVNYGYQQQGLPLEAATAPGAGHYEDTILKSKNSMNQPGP

SMILES | IC50
COc1cc(N2CCC(N(C)C)C(C)(C)C2)ccc1Nc1ncc(Cl)c(-c2c[nH]c3ccccc23)n1 (stereo not shown) [Example 32, 5-chloro-N-(4-(4-(dimethylamino)-3,3-dimethylpiperidin-1-yl)-2-methoxyphenyl)-4-(1H-indol-3-yl)pyrimidin-2-amine] | 0.356 µM
COc1cc(N2CCC(N)C(F)C2)ccc1Nc1ncc(Cl)c(-c2c[nH]c3ccccc23)n1 (single isomer, unassigned) [Example 51, (cis)-N-(4-(4-amino-3-fluoropiperidin-1-yl)-2-methoxyphenyl)-5-chloro-4-(1H-indol-3-yl)pyrimidin-2-amine] | 0.031 µM
COc1cc(P2(=O)CCC(N)CC2)ccc1Nc1ncc(Cl)c(-c2c[nH]c3ccccc23)n1 (single isomer, unassigned) [Example 42, N-[4-(4-amino-1-oxidophosphinan-1-yl)-2-methoxyphenyl]-5-chloro-4-(1H-indol-3-yl)pyrimidin-2-amine] | 0.083 µM
COc1cc(N2CCC(N)C(C)(C)C2)ccc1Nc1ncc(Cl)c(-c2c[nH]c3ccccc23)n1 (stereo not shown) [Example 30, N-(4-(4-amino-3,3-dimethylpiperidin-1-yl)-2-methoxyphenyl)-5-chloro-4-(1H-indol-3-yl)pyrimidin-2-amine] | 0.151 µM
COc1cc(N2CC[C@H](N)[C@H](F)C2)ccc1Nc1ncc(Cl)c(-c2c[nH]c3ccccc23)n1 [Example 33, N-(4-((3R,4S)-4-amino-3-fluoropiperidin-1-yl)-2-methoxyphenyl)-5-chloro-4-(1H-indol-3-yl)pyrimidin-2-amine] | 0.03 µM

The remaining lines, values ahead:

IC50 | SMILES
0.158 µM | COc1cc(P2(=O)CCC(N)CC2)ccc1Nc1ncc(C)c(-c2c[nH]c3ccccc23)n1 (single isomer, unassigned) [Example 43, N-[4-(4-amino-1-oxidophosphinan-1-yl)-2-methoxyphenyl]-4-(1H-indol-3-yl)-5-methylpyrimidin-2-amine]
0.021 µM | COc1cc(N2CCC(N(C)C)CC2)ccc1Nc1ncc(Cl)c(-c2c[nH]c3ccccc23)n1 [Example 12, 5-Chloro-N-(4-(4-(dimethylamino)piperidin-1-yl)-2-methoxyphenyl)-4-(1H-indol-3-yl)pyrimidin-2-amine]
0.02 µM | COc1cc(P2(=O)CCC(N)CC2)ccc1Nc1ncc(C)c(-c2c[nH]c3ccccc23)n1 (single isomer, unassigned) [Example 44, N-[4-(4-amino-1-oxidophosphinan-1-yl)-2-methoxyphenyl]-4-(1H-indol-3-yl)-5-methylpyrimidin-2-amine]

Same assay, conditions: geometric means of multiple test runs, as presented in the priority filings; ATP 30 μM (Km) or 5 mM, not specified which; read-out: ALK Enzyme IC50 (μM)*

SMILES | IC50
COc1cc(N2CCC(N)CC2)ccc1Nc1ncc(C)c(-c2c[nH]c3ccccc23)n1 [Example 5, N-(4-(4-Aminopiperidin-1-yl)-2-methoxyphenyl)-4-(1H-indol-3-yl)-5-methylpyrimidin-2-amine] | 0.03 µM
COc1cc(N2CCC(N(C)C)CC2)c(C)cc1Nc1ncc(C)c(-c2c[nH]c3ccccc23)n1 [Example 17, N-(4-(4-(Dimethylamino)piperidin-1-yl)-2-methoxy-5-methylphenyl)-4-(1H-indol-3-yl)-5-methylpyrimidin-2-amine] | 0.047 µM
COc1cc(N2CCC(N3CCNCC3)CC2)ccc1Nc1ncc(Cl)c(-c2c[nH]c3ccccc23)n1 [Example 3, 5-Chloro-4-(1H-indol-3-yl)-N-(2-methoxy-4-(4-(piperazin-1-yl)piperidin-1-yl)phenyl)pyrimidin-2-amine] | 0.07 µM
COc1cc(N2CCC(N3CCN(C)CC3)CC2)c(C)cc1Nc1ncc(C)c(-c2c[nH]c3ccccc23)n1 [Example 15, 4-(1H-Indol-3-yl)-N-(2-methoxy-5-methyl-4-(4-(4-methylpiperazin-1-yl)piperidin-1-yl)phenyl)-5-methylpyrimidin-2-amine] | 0.144 µM
COc1cc(N2CCC(N(C)C)C(C)(C)C2)ccc1Nc1ncc(Cl)c(-c2c[nH]c3ccccc23)n1 (stereo not shown) [Example 32, 5-chloro-N-(4-(4-(dimethylamino)-3,3-dimethylpiperidin-1-yl)-2-methoxyphenyl)-4-(1H-indol-3-yl)pyrimidin-2-amine] | 0.343 µM
COc1cc(N2CCC(N3CCN(C)CC3)CC2)ccc1Nc1ncc(C(F)(F)F)c(-c2c[nH]c3ccccc23)n1 [Example 8, 4-(1H-Indol-3-yl)-N-(2-methoxy-4-(4-(4-methylpiperazin-1-yl)piperidin-1-yl)phenyl)-5-(trifluoromethyl)pyrimidin-2-amine] | 0.061 µM
COc1cc(N2CCC(N3CCN(C)CC3)CC2)ccc1Nc1ncc(F)c(-c2cn(C)c3ccccc23)n1 [Example 36, 5-fluoro-N-(2-methoxy-4-(4-(4-methylpiperazin-1-yl)piperidin-1-yl)phenyl)-4-(1-methyl-1H-indol-3-yl)pyrimidin-2-amine] | 1.48 µM
COc1cc(N2CCC(N3CCN(C(C)C)CC3)CC2)ccc1Nc1ncc(Cl)c(-c2c[nH]c3ccccc23)n1 [Example 23, 5-Chloro-4-(1H-indol-3-yl)-N-(4-(4-(4-isopropylpiperazin-1-yl)piperidin-1-yl)-2-methoxyphenyl)pyrimidin-2-amine] | 0.028 µM
COc1cc(N2CCC(N)CC2)ccc1Nc1ncc(F)c(-c2c[nH]c3ccccc23)n1 [Example 41, N-[4-(4-Amino-1-piperidyl)-2-methoxy-phenyl]-5-fluoro-4-(1H-indol-3-yl)pyrimidin-2-amine] | 0.068 µM
COc1cc(N2CCC(N3CCN(C)CC3)CC2)ccc1Nc1ncc(Br)c(-c2c[nH]c3ccccc23)n1 [Example 27] | 0.033 µM
COc1cc(N2CCC(N)C(C)(C)C2)ccc1Nc1ncc(Cl)c(-c2c[nH]c3ccccc23)n1 (stereo not shown) [Example 30, N-(4-(4-amino-3,3-dimethylpiperidin-1-yl)-2-methoxyphenyl)-5-chloro-4-(1H-indol-3-yl)pyrimidin-2-amine] | 0.182 µM
COc1cc(N2CCC(N3CCN(C)CC3)CC2)c(C)cc1Nc1ncc(Cl)c(-c2c[nH]c3ccccc23)n1 [Example 14, 5-Chloro-4-(1H-indol-3-yl)-N-(2-methoxy-5-methyl-4-(4-(4-methylpiperazin-1-yl)piperidin-1-yl)phenyl)pyrimidin-2-amine] | 0.024 µM
COc1cc(N2CC[C@H](N)[C@H](F)C2)ccc1Nc1ncc(Cl)c(-c2c[nH]c3ccccc23)n1 [Example 33, N-(4-((3R,4S)-4-amino-3-fluoropiperidin-1-yl)-2-methoxyphenyl)-5-chloro-4-(1H-indol-3-yl)pyrimidin-2-amine] | 0.025 µM
COc1cc(N2CCC(N(C)C)CC2)ccc1Nc1ncc(C(F)(F)F)c(-c2c[nH]c3ccccc23)n1 [Example 29, N-(4-(4-(dimethylamino)piperidin-1-yl)-2-methoxyphenyl)-4-(1H-indol-3-yl)-5-(trifluoromethyl)pyrimidin-2-amine] | 0.021 µM

The remaining lines, values ahead:

IC50 | SMILES
0.39 µM | COc1cc(N2CCC(N3CC[C@@H](F)C3)CC2)c(C)cc1Nc1ncc(Cl)c(-c2c[nH]c3ccccc23)n1 [Example 25, (R)-5-Chloro-N-(4-(4-(3-fluoropyrrolidin-1-yl)piperidin-1-yl)-2-methoxy-5-methylphenyl)-4-(1H-indol-3-yl)pyrimidin-2-amine]
0.113 µM | COc1cc(N2CCC(NC3COC3)CC2)ccc1Nc1ncc(Cl)c(-c2c[nH]c3ccccc23)n1 [Example 26, 5-Chloro-4-(1H-indol-3-yl)-N-(2-methoxy-4-(4-(oxetan-3-ylamino)piperidin-1-yl)phenyl)pyrimidin-2-amine]
0.024 µM | COc1cc(N2CCC(N3CCN(C)CC3)CC2)ccc1Nc1ncc(C#N)c(-c2c[nH]c3ccccc23)n1 [Example 28, 4-(1H-Indol-3-yl)-2-(2-methoxy-4-(4-(4-methylpiperazin-1-yl)piperidin-1-yl)phenylamino)pyrimidine-5-carbonitrile]
0.225 µM | COc1cc(N2CCC(N3CCN(C)CC3)CC2)c(F)cc1Nc1ncc(Cl)c(-c2c[nH]c3ccccc23)n1 [Example 39, 5-chloro-N-[5-fluoro-2-methoxy-4-[4-(4-methylpiperazin-1-yl)-1-piperidyl]phenyl]-4-(1H-indol-3-yl)pyrimidin-2-amine]
0.023 µM | COc1cc(N2CCC(N(C)C)CC2)ccc1Nc1ncc(Cl)c(-c2c[nH]c3ccccc23)n1 [Example 12, 5-Chloro-N-(4-(4-(dimethylamino)piperidin-1-yl)-2-methoxyphenyl)-4-(1H-indol-3-yl)pyrimidin-2-amine]
0.244 µM | COc1cc(N2CCC(N3CCN(C)CC3)CC2)c(F)cc1Nc1ncc(F)c(-c2c[nH]c3ccccc23)n1 [Example 37, 5-Fluoro-N-[5-fluoro-2-methoxy-4-[4-(4-methylpiperazin-1-yl)-1-piperidyl]phenyl]-4-(1H-indol-3-yl)pyrimidin-2-amine]
